Data on three molecules can be found in patent US20050049206A1, “Compositions of flavonoids and flavonoid-containing extracts and the treatment of diseases” (priority 2003, published 2005).

Series [1] concerns pulmonary fibrosis in bleomycin-induced rats. The experiment in a line: Histopathological / morphologic examination of lungs in bleomycin-induced pulmonary fibrosis rats. The settings on record: for Alveolitis Score 0 (number of rats) / Alveolitis Score I (number of rats) / Alveolitis Score II (number of rats) / Alveolitis Score III (number of rats) / Pulmonary Fibrosis Score 0 (number of rats) / Pulmonary Fibrosis Score I (number of rats) / Pulmonary Fibrosis Score II (number of rats) / Pulmonary Fibrosis Score III (number of rats): BL-instilled rats, day 28, n=10; for pulmonary anti-fibrotic activity: animal experiments (rats). Format: in vivo, Sprague-Dawley rats.

Series [2] shares this test system. Description: Assays of bronchoalveolar lavage fluid in bleomycin-induced pulmonary fibrosis rats. Format: in vivo, Sprague-Dawley rats. As to conditions: BL-instilled rats, day 28, n=10.
Series [3] can be described thus: Acute toxicity (LD50). The settings on record: in vivo.
Series [4] concerns CCl4-induced liver cirrhosis in rats. The experiment in a line: Hepatic cirrhosis in CCl4-induced rats. Format: in vivo, Sprague-Dawley rats. The settings on record: for ALT decrease / AST decrease: serum, 450 mg/kg by gavage for 3 weeks after 8 weeks CCl4, P<0.001 (FIG. 10). The source says:
Animals and method of baicalin dosing: Fibrosis was induced by chronic CCl4 administration to rats. Sprague-Dawley rats weighing 200-240 g received three doses a week i.p. of a mixture 1:6 of CCl4-mineral oil for the first week; then the second week the ratio was 1:5, the third week 1:4, and the 4th-8th weeks the ratio was 1:3 [Armendariz Biochim Biophys Acta 1997;1353:241-252, Armendariz Hepatology 1991;14:895-900.]. CCl4 intoxication was stopped and cirrhotic animals were then fed by gavage either with the baicalin (n=10) at the dosage of 450 mg/kg or saline (n=10) as a control for 3 more weeks.
Statistical analysis: Results relative to the number of experiments indicated, are expressed as mean ±SD. Statistical analyses were perfomed using Student's t-test.
Preparation of liver homogenates: Rats were killed at indicated times and liver homogenates were prepared from 150 mg of tissue as described [Gao Hum Gene Ther 1999;10:911-922.] and kept at −70° C. At the same time, serum samples were obtained and kept at −20° C. until used. Total protein levels in serum were determined using Bradford assay of protein quantification [Bradford Anal Biochem 1976;72:248-254.].
Biochemical assays: Blood was drawn from control and experimental cirrhotic animals at the moment of sacrifice and serum transaminases alanine aminotransferase (ALT), aspartate aminotransferase (AST) and alkaline phosphatase (ALP) were determined in an automated Sincron-7 machine.
Hydroxyproline content biochemical determinations: Liver samples were obtained at the moment of sacrifice and 150 mg were subjected to acid hydrolysis to determine the amount of hydroxyproline according to Rojkind and coworkers [Rojkind Anal Biochem 1974; 57:1-7].

Setting [5] is: baicalein by gavage once a day (350 or 450 mg/kg/day).
Setting [6] is: baicalin 450 mg/kg/day by gavage.

SMILES strings stand for the structures. Entries after “also recorded” stand apart in the source; their conditions may differ. Like-named read-outs stand apart in the source and are kept apart here.

As to `O=c1cc(-c2ccccc2)oc2cc(O)c(O)c(O)c12` [Baicalein, 5,6,7-Trihydroxy-2-phenyl-4H-chromen-4-one], in series [1] (baicalein by gavage once a day), the “Alveolitis Score 0 (number of rats)” value was found to be 0, the “Alveolitis Score I (number of rats)” value turned out to be 8, the “Alveolitis Score II (number of rats)” value is listed as 2 and the “Alveolitis Score III (number of rats)” value is on record as 0. In addition, in series [1] (baicalein by gavage once a day), the “Pulmonary Fibrosis Score 0 (number of rats)” value is 0, the “Pulmonary Fibrosis Score I (number of rats)” value turned out to be 7, the “Pulmonary Fibrosis Score II (number of rats)” value was 3 and the “Pulmonary Fibrosis Score III (number of rats)” value came out at 0. In addition, the pulmonary anti-fibrotic activity entry in series [1] was “dramatic and novel pulmonary anti-fibrotic activity”. For the same molecule, in series [1] (baicalein by gavage, BL-rat model), the “extracellular fibers and mononuclear cell alveolitis of lungs compared with the BL group” value is “considerably less extracellular fibers and mononuclear cell alveolitis”. For the same molecule, the “fibrotic score (lung)” value in series [1] (oral baicalein, BL-induced rats) is on record as “dramatic effect”. In series [2] (setting [5]), the LDH came out at 1389.61 ± 526.34 U/L, the Mononuclear cells is 501.0 ± 310.2 ×10^4/ml and the Protein is listed as 1.95 ± 0.35 g/L. Also, in series [3], the LD50 (commonly the dose at which mortality reaches 50%) was found to be 11000 mg/kg and the acute toxicity entry was “about 11 g/kg body weight”. The LD50 in series [3] (read-out: LD50) came out at 14000 mg/kg.

In the case of `O=C(O)[C@H]1O[C@@H](Oc2cc3oc(-c4ccccc4)cc(=O)c3c(O)c2O)[C@H](O)[C@@H](O)[C@@H]1O` [Baicalin, (2S,3S,4S,5R,6S)-6-(5,6-dihydroxy-4-oxo-2-phenyl-4H-chromen-7-yloxy)-tetrahydro-3,4,5-trihydroxy-2H-pyran-2-carboxylic acid], the “macroscopic view of cirrhotic livers, treated vs non-treated” value in series [4] (450 mg/kg baicalin, n=10, P<0.001 (FIG. 8)) is reported as “remarkable differences in the entire granular texture of the liver”. Further, in series [4] (baicalin 450 mg/kg by gavage for 3 weeks after 8 weeks CCl4, P<0.05 (FIG. 9)), the “hydroxyproline level of liver (relative collagen content per g of liver) vs non-treated” value was “significantly lower”. Also, in series [4] (baicalin 450 mg/kg daily by gavage for 3 weeks after 8 weeks CCl4, n=10), the “liver fibrosis reduction as compared with saline controls” value was 40%. Also, the “fibrotic index (liver)” value in series [4] (oral baicalin 450 mg/kg, CCl4 rats (FIG. 8)) is reported as “dramatic effect”. In series [4], the ALT decrease result is given as “over 2 fold” and the AST decrease entry is “over 3 fold”. Further, in series [1] (setting [6]), the “Alveolitis Score 0 (number of rats)” value is 0, the “Alveolitis Score I (number of rats)” value is 7, the “Alveolitis Score II (number of rats)” value was determined as 3 and the “Alveolitis Score III (number of rats)” value is listed as 0. In series [1] (setting [6]), the “Pulmonary Fibrosis Score 0 (number of rats)” value worked out at 0, the “Pulmonary Fibrosis Score I (number of rats)” value is reported as 6, the “Pulmonary Fibrosis Score II (number of rats)” value amounted to 4 and the “Pulmonary Fibrosis Score III (number of rats)” value amounted to 0. Also, the pulmonary anti-fibrotic activity result in series [1] is “dramatic and novel pulmonary anti-fibrotic activity”. For the same molecule, the “lung lesions (morphology) compared with the BL group” value in series [1] (baicalin-treated BL-induced rats, day 28, HE staining) was “of a more mild nature than that of the BL group; also recorded: considerably less extracellular fibers and mononuclear cell alveolitis; also recorded: of a more mild nature than those of the BL group”. Also, the “fibrotic index (lung)” value in series [1] (oral baicalin, BL-induced rats) is given as “dramatic effect”. In addition, in series [2] (setting [6]), the LDH is 1331.61 ± 516.68 U/L, the Mononuclear cells is recorded as 465.0 ± 320.2 ×10^4/ml and the Protein turned out to be 1.85 ± 0.52 g/L. In series [3], this molecule came in with an acute toxicity of about 14 g/kg body weight. Besides, the LD50 in series [3] (read-out: LD50) was 11000 mg/kg.

Take `Cc1ccc(=O)n(-c2ccccc2)c1` [Pirfenidone, reference compound]: in series [4], the ALT decrease entry was “over 2 fold” and the AST decrease entry is given as “over 3 fold”.
